Bounds are passed on as bounds.

Among the data in ChEMBL document CHEMBL3627653, “Synthesis and biological evaluation of spiro[cyclopropane-1,3'-indolin]-2'-ones as potential anticancer agents” (Bioorg Med Chem Lett, 2015) are IC50 values, retold here.

What all share (type): functional, cell-based
For one assay, the system named is HT-29. In words: Anticancer activity against human HT-29 cells assessed as reduction in cell viability incubated for 48 hrs by MTT assay. As to conditions: HT-29, 48 h. A general note: Formazan colour is commonly taken as a measure of viable cells.
The next assay concerns A549. Kind of assay: Anticancer activity against human A549 cells assessed as reduction in cell viability incubated for 48 hrs by MTT assay. Conditions: A549, 48 h.
The subject of another assay is HeLa. Kind of assay: Anticancer activity against human HeLa cells assessed as reduction in cell viability incubated for 48 hrs by MTT assay.
The subject of another assay is DU-145. In words: Anticancer activity against human DU145 cells assessed as reduction in cell viability incubated for 48 hrs by MTT assay. Conditions: DU-145, 48 h.
A further assay deals with MCF7. In words: Anticancer activity against human MCF7 cells assessed as reduction in cell viability incubated for 48 hrs by MTT assay. As to conditions: MCF7, 48 h.

In general, IC50 refers to the concentration needed to halve the response being measured. Take `CCOC(=O)[C@H]1[C@H](C(O)c2ccc([N+](=O)[O-])cc2)C12C(=O)Nc1ccc(Br)cc12` (stereo partly drawn): the half-inhibitory concentration (IC50) was 23.4 µM with HT-29; 21.1 µM in the assay on A549; 28.8 µM in the assay on HeLa; 27.8 µM with DU-145; more than 100 µM in the assay with MCF7.
In the case of `CCOC(=O)[C@@H]1[C@@H](C(=O)c2ccccc2)C12C(=O)Nc1ccccc12` (stereo partly drawn), the half-inhibitory concentration (IC50) in the assay with HT-29 stood at 2.75 µM; in the assay on A549, 4.16 µM; in the assay on HeLa it was 7.24 µM; in the assay with DU-145 it was 1.69 µM; with MCF7 it was 2.95 µM.
For `CCOC(=O)[C@H]1C(C(=O)c2ccc(OC)cc2)C12C(=O)Nc1ccc(Cl)cc12` (stereo partly drawn) the same measures were 9.54 µM, 6.42 µM, 9.12 µM, 5.01 µM and 9.33 µM.
For `CCOC(=O)[C@H]1[C@H](C(=O)OCC)C12C(=O)Nc1ccc(Cl)cc12` (relative stereo) the same measures were 22.9 µM, 29 µM, 25.1 µM, 19.9 µM and 24 µM.
For the molecule `CCOC(=O)[C@H]1[C@H](C(=O)OCC)C12C(=O)Nc1ccc(Br)cc12` (relative stereo), the 50% inhibitory concentration (IC50) with HT-29 is 30.9 µM; in the assay on A549, more than 100 µM; in the assay on HeLa it was 62.8 µM; in the assay on DU-145, 50.7 µM; with MCF7, more than 100 µM.
Turning to `CCOC(=O)[C@H]1[C@H](C(=O)OCC)C12C(=O)Nc1ccc(F)cc12` (relative stereo), the IC50 in the assay with HT-29 turned out to be 36.6 µM; with A549, 78.2 µM; with HeLa it was 84.2 µM; in the assay on DU-145, 24.3 µM; with MCF7, 36.8 µM.
For `CCOC(=O)[C@H]1[C@H](C(=O)OCC)C12C(=O)Nc1ccccc12` (relative stereo) the same measures were 18.9 µM, more than 100 µM, 61.3 µM, 18.6 µM and 57.5 µM.
As for `CCOC(=O)[C@H]1[C@H](C(=O)OCC)C12C(=O)Nc1ccc([N+](=O)[O-])cc12` (relative stereo), the half-inhibitory concentration (IC50) is 50.1 µM in the assay on HT-29; more than 100 µM in the assay with A549; 32.9 µM in the assay on HeLa; 38 µM with DU-145; 71.6 µM in the assay on MCF7.
In the same order, the values of `CCOC(=O)[C@H]1[C@H](C(=O)OCC)C12C(=O)N(C)c1ccccc12` (relative stereo) are 26.9 µM, 74.2 µM, 32.2 µM, 39.8 µM and 32.1 µM.
For `CCOC(=O)[C@H]1[C@H](C(=O)c2ccc(Cl)cc2)C12C(=O)Nc1ccccc12` (relative stereo) the same measures were 23.7 µM, 12.9 µM, 19.9 µM, 15.8 µM and 18.6 µM.
For `CCOC(=O)[C@H]1[C@H](C(=O)c2ccc(OC)cc2)C12C(=O)Nc1ccccc12` (relative stereo) the same measures were 14.7 µM, 9.77 µM, 26.3 µM, 17.4 µM and 19.1 µM.
On to `CCOC(=O)[C@H]1[C@H](C(=O)c2ccc3ccccc3c2)C12C(=O)Nc1ccccc12` (relative stereo), for which the concentration for half-maximal inhibition (IC50) in the assay with HT-29 was 18 µM; in the assay with A549 it was 12.6 µM; with HeLa it was 20 µM; in the assay on DU-145, 17.2 µM; with MCF7, 31.1 µM.
In the same order, the values of `CCOC(=O)[C@H]1[C@H](C(=O)c2ccc([N+](=O)[O-])cc2)C12C(=O)Nc1ccccc12` (relative stereo) are 25.1 µM, 19.1 µM, 41.3 µM, 19.8 µM and 22.1 µM.
For `CCOC(=O)[C@H]1[C@H](C(=O)c2ccc(OC)c([N+](=O)[O-])c2)C12C(=O)Nc1ccccc12` (relative stereo) the same measures were 7.24 µM, 4.79 µM, 7.76 µM, 6.36 µM and 9.77 µM.
In the same order, the values of `CCOC(=O)[C@H]1[C@H](C(=O)c2cc(OC)c(OC)c(OC)c2)C12C(=O)Nc1ccccc12` (relative stereo) are 8.51 µM, 17.7 µM, 32.8 µM, 15.8 µM and 50.1 µM.
For `CCOC(=O)[C@H]1[C@H](C(=O)c2cc(OC)c(OC)c(OC)c2)C12C(=O)Nc1ccc(Cl)cc12` (relative stereo), the 50% inhibitory concentration (IC50) came out at 25.1 µM with HT-29; 24.1 µM in the assay with A549; 39.8 µM in the assay on HeLa; 21.9 µM with DU-145; 37.5 µM in the assay with MCF7.
Turning to `CCOC(=O)[C@H]1[C@H](C(=O)c2ccc(Cl)cc2)C12C(=O)Nc1ccc(Cl)cc12` (relative stereo), the 50% inhibitory concentration (IC50) in the assay on HT-29 was 79.4 µM; in the assay with A549 it was 32.4 µM; in the assay with HeLa it was more than 100 µM; with DU-145, more than 100 µM; in the assay with MCF7 it was 30.8 µM.
`CCOC(=O)[C@H]1[C@H](C(=O)c2ccc(C)cc2)C12C(=O)Nc1ccc(Cl)cc12` (relative stereo): the half-maximal inhibitory concentration (IC50) in the assay on HT-29 is more than 100 µM; with A549, more than 100 µM; with HeLa, more than 100 µM; in the assay with DU-145, more than 100 µM; in the assay with MCF7, 90.2 µM.
With `CCOC(=O)[C@H]1[C@H](C(=O)c2ccc(OC)c(OC)c2)C12C(=O)Nc1ccc(Cl)cc12` (relative stereo), the 50% inhibitory concentration (IC50) came out at 9.92 µM in the assay on HT-29; 7.07 µM with A549; 13 µM with HeLa; 8.31 µM with DU-145; 20.3 µM with MCF7.
For `CCOC(=O)[C@H]1[C@H](C(=O)c2ccc3ccccc3c2)C12C(=O)Nc1ccc(Cl)cc12` (relative stereo) the same measures were 5.01 µM, 6.16 µM, 7.76 µM, 5.24 µM and 4.89 µM.
In the same order, the values of `CCOC(=O)[C@H]1[C@H](C(=O)c2ccc([N+](=O)[O-])cc2)C12C(=O)Nc1ccc(Cl)cc12` (relative stereo) are 2.95 µM, 3.59 µM, 10.7 µM, 2.88 µM and 4.26 µM.
Regarding `CCOC(=O)[C@H]1[C@H](C(=O)c2ccccc2)C12C(=O)N(C)c1ccccc12` (relative stereo), the concentration for half-maximal inhibition (IC50) in the assay with HT-29 worked out at 16.1 µM; in the assay with A549, 7.24 µM; in the assay on HeLa, 19.5 µM; in the assay on DU-145, 7.94 µM; in the assay with MCF7, 13.2 µM.
Regarding `CCOC(=O)[C@H]1[C@H](C(=O)c2ccc3ccccc3c2)C12C(=O)N(C)c1ccccc12` (relative stereo), the IC50 was more than 100 µM with HT-29; 98.5 µM in the assay on A549; more than 100 µM in the assay with HeLa; more than 100 µM in the assay with DU-145; 75.9 µM in the assay with MCF7.
For the molecule `CCOC(=O)[C@H]1[C@H](C(=O)c2ccc(C)cc2)C12C(=O)N(C)c1ccccc12` (relative stereo), the IC50 in the assay on HT-29 turned out to be 23.9 µM; with A549 it was 5.49 µM; with HeLa it was 33.5 µM; in the assay with DU-145, 7.24 µM; in the assay with MCF7 it was 24.7 µM.
For `CCOC(=O)[C@H]1[C@H](C(=O)c2ccc([N+](=O)[O-])cc2)C12C(=O)N(C)c1ccccc12` (relative stereo) the same measures were 19.7 µM, 26.1 µM, 51.2 µM, 18.9 µM and 37.1 µM.
In the same order, the values of `CCOC(=O)[C@H]1[C@H](C(=O)c2ccc(Cl)cc2)C12C(=O)N(C)c1ccccc12` (relative stereo) are 8.51 µM, 6.56 µM, 12.6 µM, 6.3 µM and 12.6 µM.
In the same order, the values of `CCOC(=O)[C@H]1[C@H](C(=O)c2ccc(OC)cc2)C12C(=O)N(C)c1ccccc12` (relative stereo) are 13.2 µM, 5.88 µM, 15.4 µM, 15 µM and 18.2 µM.
`CCOC(=O)[C@H]1[C@H](C(=O)c2ccc(OC)cc2)C12C(=O)Nc1ccc(Br)cc12` (relative stereo): the IC50 in the assay with HT-29 was 33.7 µM; in the assay with A549, 79.4 µM; with HeLa, 45.1 µM; in the assay on DU-145, 31.7 µM; in the assay with MCF7 it was 41.6 µM.
In the same order, the values of `CCOC(=O)[C@H]1[C@H](C(=O)c2ccc3ccccc3c2)C12C(=O)Nc1ccc(Br)cc12` (relative stereo) are 79.4 µM, 25 µM, more than 100 µM, 36.9 µM and 29.3 µM.
With `CCOC(=O)[C@H]1[C@H](C(=O)c2ccc(Cl)cc2)C12C(=O)Nc1ccc(Br)cc12` (relative stereo), the IC50 amounted to 8.47 µM in the assay on HT-29; 15.8 µM in the assay with A549; 62.1 µM in the assay on HeLa; 8.12 µM in the assay on DU-145; 12.2 µM in the assay with MCF7.
In the same order, the values of `CCOC(=O)[C@H]1[C@H](C(=O)c2ccc([N+](=O)[O-])cc2)C12C(=O)Nc1ccc(Br)cc12` (relative stereo) are 42.6 µM, 30.5 µM, 68.9 µM, 31.6 µM and more than 100 µM.
Regarding `COc1cccc2c1C(=O)c1c(O)c3c(c(O)c1C2=O)C[C@@](O)(C(=O)CO)C[C@@H]3O[C@H]1C[C@H](N)[C@H](O)[C@H](C)O1` [DOXORUBICIN], the figures for the half-maximal inhibitory concentration (IC50) with HT-29, in the assay with HeLa and in the assay on DU-145 were 0.93 µM, 1.51 µM and 1.94 µM, respectively.
